We go through six molecules from patent publication US9127085B2, “Compositions of humanized notch fusion proteins and methods of treatment” (THE TRUSTEES OF COLUMBIA UNIVERSITY IN THE CITY OF NEW YORK, priority 2007, dated 2015).

“Also recorded” adds a separate entry of the source.

In test [1] the test system is Ad-Notch4 transduced HUVEC. Description: Endothelial co-culture morphogenesis assay (Notch4-induced extensions on fibrin gel). The settings on record: 200 nM compound E vs vehicle. The test is classed as cell-based, human. As to the method:
HUVEC morphogenesis was assessed as described (11), modified by adding co-culturing of Ad-Notch4 transduced HUVEC with Notch1 decoy- or Fc-HUVEC transfectants. Ad-GFP at 10 m.o.i. was co-transduced in HUVECs with Ad-LacZ or Ad-Notch4 at 30 m.o.i and 48 h later seeded on fibrin gels (24-well plates, 1.5×10^4 cells/well). Stable HUVEC-mock (HUVEC-X), HUVEC-Fc, or HUVEC-N1ECDFc transfectants were seeded at 1.35×10^5 cells/well, and vehicle or 200 nM compound E added 3 h later. Seven days later, HUVEC morphogenesis was calculated as the number of GFP-positive cells with processes compared to total GFP-positive cells/field.

Another test concerns C2C12 cells. Description: C2C12 myoblast differentiation. The class given is cell-based. Conditions: C2C12 transduced with Foxo1-ADA. On the procedure: FIGS. 38A-38C These Figures show the quantitative analysis of C2C12 differentiation. […] Results from differentiation experiments were analyzed by scoring the number of Myosin-immunostained cells as percentage of all DAPI-positive cells. […] We carried out reporter gene assays using the canonical Foxo1-responsive Igfbp1 promoter (left panel) and the Hes1 promoter (right panel) in cells co-transfected with Foxo1-ADA or DBD-Foxo1ADA. […] An asterisk indicates P<0.01 by ANOVA.
C2C12 cells were differentiated as described (3, 4). Foxo1-ADA, Notch1-IC, Jagged1, Csl and Notch decoy adenoviral and mammalian expression vectors have been described (36, 51). We generated retroviruses expressing Foxo1-ADA and Notch1-IC using the pQCXIH vector. To generate Notch decoy (pAdlox Notch1ECD-Fc), the extracellular domain of Notch1(bp 241-4229, GenBank accession# X57405) was fused in frame with human IgG Fc tag and cloned into pAdlox. Retroviral supernatant was produced from cells transiently co-transfected with pVSV-G vector and designated pQCXIH vector into GP2-293 cells (BD Bioscience). To generate the DNA binding-deficient Foxo1, we replaced N208 and H212 with alanine and arginine, respectively, using QuikChange Mutagenesis Kit (Stratagene). The mutations were then cloned in the backbone of the Foxo1-ADA mutant. […]

A further test relates to Ad-N1IC-transduced HUVEC. Description: Notch (Ad-N1IC)-induced HUVEC budding. The test is classed as cell-based, human. On the procedure: HUVEC were transduced with either Ad-LacZ or Ad-N1IC at 40 MOI. FIGS. 23A-23C show the effect of inhibitors for receptor tyrosine kinases on Notch-induced HUVEC budding. FIG. 23A is a photograph of budding of Ad-N1IC-transduced HUVEC treated with PD166866, ZD1893 at 1 μM and SU5416 at 0.5 μM. […] FIGS. 23D-E show induction of Flt-1 expression in Ad-N1IC-transduced HUVEC. […] FIGS. 23F-G show promotion of Notch-induced HUVEC budding with PlGF stimulation. Ad-N1IC-transduced HUVEC were cultured on collagen gel with SFM, instead of complete medium, in the absence or presence of 50 ng/ml PlGF. […] FIGS. 23H-I show the effect of Flt-1 siRNA transfection on Flt1 expression. Ad-N1IC-transduced HUVEC were transfected with 200 pmol of either control (CT) or Flt-1 siRNA. […] Ad-N1IC-transduced HUVEC were transfected with either 100 or 200 pmol of siRNA and cultured on collagen gel for 2 days.
Either Ad-LacZ or Ad-N1IC-HUVEC at a MOI of 40 pfu/cell were cultured on collagen gel for 5 days in the absence or presence of GM6001 at 50 μm.
For making collagen gels, an ice-cold solution of porcine type I collagen (Nitta gelatin, Tokyo, Japan) was mixed with 10×RPMI1640 medium and neutralization buffer at the ratio of 8:1:1. 400 μl aliquots of collagen gel were then added to 24-well plates and allowed to gel for at least 1 hour at 37° C. Following adenoviral infection (above), HUVEC was harvested and plated at 1.3×10^5 cells per well onto the top of the collagen gel in 24-well plates in 0.8 ml of EGM2 medium. HUVEC became nearly confluent 48 hours after plating. After seeding, medium was changed every 2 days for 1 week. Sprouting was observed and photographs taken after 8 days with an Olympus digital camera mounted to a microscope. For quantification of the number of sprouts, 5 fields per each well were randomly selected and sprouting was counted under microscopy in a blind manner by two investigators.

In test [2] the test system is Jagged1 and Dll1 expression in Mm5MT-FGF4 cells. Description: Quantitative RT-PCR of Notch ligands in Mm5MT-FGF4 transfectants. The test is classed as cell-based, mouse. The settings on record: 1 μm PD166866, 7 days. On the procedure: Mm5MT transfectants were cultured 7 days with vehicle or 1 μm PD166866 (inhibitor of FGF receptor-kinase), total RNA isolated (RNeasy mini-kit, Qiagen, Valencia, Calif.), and first-strand cDNA synthesized (SuperScript™ First-Strand Synthesis System, Invitrogen). Quantitative RT-PCR for β-actin, FGF4, Jagged1, Dll1, and Dll4 (SYBER Green PCR Master Mix, 7300 Real Time PCR; Applied Biosystems, Foster City, Calif.) was performed in triplicate and values normalized for β-actin. Values are shown for fold induction compared to controls (primer sequences available on request).

For test [3], the system named is retinal neovascularization. The settings on record: intravitreal injection; hypoxic mouse model; cited from earlier work.
The test system of test [4] is VEGF induced retinal microvascular permeability and vasoconstriction. The settings on record: subcutaneous injection; diabetic rat model; cited from earlier work.
In test [5] the test system is CBF1 promoter activity in Ad-VEGF-infected HUVEC. Description: VEGF-induced Notch signaling, CBF1 (CSL) promoter reporter in HUVEC. The class given is cell-based, human. Conditions: SU5416 treatment of Ad-VEGF-transduced HUVEC. On the procedure: To determine VEGF-induced Notch signaling, HUVEC which were infected with adenovirus were used. HUVEC plated 1-day prior in 6 well plates at 8.0×10^5 were infected with either Ad-LacZ as control or Ad-VEGF at indicated m.o.i. in the presence or absence of Ad-N1ECD/Fc. Two days after infection, infected HUVEC were re-seeded into 24-well plate at 1.5×10^5 cell in triplicate and cultured for 24 hours, and then transfected with 12.5 ng pRL-SV40 (Promega) and 137.5 ng pGA981-6 using Effectene transfection reagent (Qiagen). Cells were harvested either 1 or 2 days post-transfection and luciferase activity was determined by using the Dual-Luciferase® Reporter Assay System (Promega).
One can measure Notch signaling function by measuring transcriptional activity of CBF1 promoter, which is activated by binding of Notch-IC to CBF1. We measured CBF1 promoter activity in HUVEC which was infected with adenovirus encoding VEGF-165 at different MOI (FIG. 6). Induction of CBF1 promoter was clearly detected in Ad-VEGF-infected HUVEC, compared to Ad-LacZ-infected cells in the MOI dependent manner. […] Thus VEGF induced Notch signaling activity.

The mark [6] stands for this setting: Ad-N1IC at 40 MOI, receptor tyrosine kinase inhibitors at 1 μM.

For `C[C@H](NC(=O)Cc1cc(F)cc(F)c1)C(=O)N[C@H]1N=C(c2ccccc2)c2ccccc2N(C)C1=O` [Compound E], the “Notch4-induced HUVEC extensions” value in test [1] (p<0.0001) is recorded as “clearly inhibited extensions”; in test [1] (p<0.0001, listed as compound E) it was “blocks Notch4-induced extensions”. In the test on C2C12 cells, the “rescue of Foxo1-ADA inhibition of myoblast differentiation” value is “also rescued Foxo1-ADA inhibition of myoblast differentiation”.

Consider `CNC(=O)[C@H](Cc1c[nH]c2ccccc12)NC(=O)[C@@H](CC(=O)NO)CC(C)C` [GM6001], for which, in the test on Ad-N1IC-transduced HUVEC (GM6001 at 50 μm, 5 days, collagen and fibrin gel), the “budding of Ad-N1IC-HUVEC” value is reported as “clearly decreased budding of Ad-N1IC-HUVEC”.

For the molecule `COc1cc(OC)cc(-c2cc3cnc(N)nc3nc2NC(=O)NC(C)(C)C)c1` [PD166866], the “budding of Ad-N1IC-HUVEC” value in the test on Ad-N1IC-transduced HUVEC (setting [6]) was “Neither PD166866 or ZD1893 affected budding”. In test [2], the “FGF4-induced Jagged1 and Dll1 expression” value is “suppressed induction of both Jagged1 and Dll1; also recorded: reduction of Notch ligand expression”.

In the case of `Clc1ccc(Nc2nnc(Cc3ccncc3)c3ccccc23)cc1` [PTK/ZK], in test [3], the retinal neovascularization entry was “reduces retinal neovascularization”.

For `Cc1cc(C)c(/C=C2\C(=O)Nc3ccccc32)[nH]1` [SU5416], the “budding of Ad-N1IC-HUVEC” value in the test with Ad-N1IC-transduced HUVEC (setting [6]) is on record as “clearly inhibited”. In addition, the “viability of Ad-N1IC-HUVEC (dose-dependency of SU5416)” value in the test on Ad-N1IC-transduced HUVEC (lower concentrations of SU5416) is “less reduction of viability at lower concentrations”. Moreover, in test [4], the “VEGF induced retinal microvascular permeability and vasoconstriction” value was “suppresses VEGF induced retinal microvascular permeability and vasoconstriction”. For the same molecule, in test [5], the “VEGF-induced CSL-luciferase reporter activity” value is “decreased VEGF-induced CSL-luciferase reporter activity”.

B1: PlGF: a selective ligand for Flt1 (protein, UniProt P49763 19-221, looked up)
Placenta growth factor: LPAVPPQQWALSAGNGSSEVEVVPFQEVWGRSYCRALERLVDVVSEYPSEVEHMFSPSCVSLLRCTGCCGDENLHCVPVETANVTMQLLKIRSGDRPSYVELTFSQHVRCECRHSPGRQSPDMPGDFRADAPSFLPPRRSLPMLFRMEWGCALTGSQSAVWPSSPVPEEIPRMHPGRNGKKQQRKPLREKMKPERCGDAVPRR
With B1, the “increase in HUVEC buds containing multiple filopodia” value with Ad-N1IC-transduced HUVEC (50 ng/ml PlGF, SFM) is 250%. The “increase in number of Ad-N1IC-HUVEC buds” value in the test on Ad-N1IC-transduced HUVEC (50 ng/ml PlGF, SFM, compared to the absence of PlGF) is 150%.
